“Also recorded” adds a separate entry of the source.

One assay deals with c-Src (Homo sapiens, UniProt P12931). The note with it: concentration of 50 μM; cited from earlier work.
The subject of a further assay is PKC. The conditions noted are these: concentration of 50 μM; cited from earlier work.
The test system of a further assay is PI4 kinase. The note with it: concentration of 50 μM; cited from earlier work.
The subject of the next assay is PI3 kinase. The note with it: concentration of 50 μM; cited from earlier work.
The test system of the next assay is MAP kinase. The conditions noted are these: concentration of 50 μM; cited from earlier work.
Assay [1] deals with LN229 or PC3 cells. The assay can be described thus: Analysis of bioenergetics (ATP, glucose, lactate, oxygen consumption). The format is cell-based, Human.
The next assay has as its system Akt phosphorylation. The assay can be described thus: Akt phosphorylation in tumor cell lines by Western blotting. Format: cell-based, Human. The note with it: high (10 μM) and low (0.8 μM) concentrations, within 24 hours.
In the next assay the test system is CypD. The assay can be described thus: CypD level and Ser phosphorylation in reconstituted LN229 cells. Format: cell-based, Human. From the text: Mutant constructs were confirmed by DNA sequencing and transfected in CypD-depleted cells for reconstitution experiments. In some experiments, CypD depleted LN229 cells were transfected with WT or mutant CypD constructs and analyzed for bioenergetics (glucose utilization, oxygen consumption, ATP production) or cell viability (JC1 or Annexin V multiparametri staining, cytochrome c release) readouts.

Assay [2] has as its system LN229 or PC3 cells. The assay can be described thus: Cell cycle, proliferation and viability after PI3K inhibition. Format: cell-based, Human. On the procedure:
(§1) Mitochondrial integrity and cell viability. LN229 or U251 cells were treated with vehicle (DMSO), PI3K inhibitors, BEZ (0.5 μM) or LY294002 (50 μM), alone or combination with Gamitrinib (0.5-5 μM, respectively) for 24 h, and analyzed for changes in mitochondrial membrane potential by JC-1 staining and multiparametric flow cytometry, as described. For cell viability, LN229, U87 or U251 cells treated with vehicle, PI3K inhibitors BEZ or LY294002, or, alternatively, transfected with control cDNA or Δ-p85 dominant negative PI3K mutant, alone or in combination with Gamitrinib, were examined by a 3 (4,5-dimethyl-thyazoyl-2-yl)2,5 diphenyltetrazolium bromide (MTT) colorimetric assay. Changes in cell viability in LN229 cells exposed to PX-866 (0-25 μM) were monitored by Trypan blue staining, or, alternatively, MTT. For apoptosis, LN229 cells (1×10^6) treated with vehicle, Gamitrinib or PI3K inhibitors (BEZ, LY294002), alone or in combination for 24 h, were labeled for annexin V plus propidium iodide (PI) (BD Biosciences), and analyzed by multiparametric flow cytometry (BD), as described. Alternatively, cytosolic fractions isolated from treated tumor cells were analyzed for released cytochrome c, by Western blotting. For analysis of colony-forming ability, PC3 or LN229 cells were treated with vehicle (Veh) or PX-866 (10 μM) and analyzed in a colony formation assay after 12 days. Colonies were stained with crystal violet. In some experiments, LN229 cells treated with PX-866 (0-25 μM) were analyzed for DNA content by PI staining and flow cytometry.

Another assay concerns tumor cells. The assay can be described thus: Senescence markers (SA-β-Gal, PML nuclear bodies). Format: cell-based. The note with it: treated tumor cells.
For a further assay, the system named is GBM organotypic cultures. The assay can be described thus: Tumor kinome transcription (OpenArray real-time PCR) in GBM organotypic cultures. The format is cell-based, Human. On the procedure:
Organotypic cultures. Short-term organotypic cultures from the different patient samples were established as described previously. […]
Bioinformatics analysis. Transcriptional changes in the human kinome following PI3K inhibition were analyzed using OpenArray real-time PCR amplification. […] Ct values from the experiment were exported from BioTrove OpenArray Real-Time qPCR Analysis Software v1.0.4. ΔΔCt value method was used to calculate fold changes between sample pairs with endogenous control Ct value calculated as average among 15 endogenous controls on the array: ALAS1, B2M, CASC3, G6PD, GAPDH, GUSB, HMBS, HPRT1, IPO8, POLR2A, PPIA, RPLP0, TFRC, UBE2D2, and YWHAZ. P-values for differential expression were calculated using fold changes of 15 endogenous controls as a null distribution.
On the technique in general: In qPCR the cycle at which signal appears reflects the starting amount.

Another assay relates to PC3 or LN229 cells. The assay can be described thus: Colony formation assay. Format: cell-based, Human. The note with it: 10 μM, 12 days, compared with control cultures. On the procedure: as §1, with “Colonies were stained with crystal violet. In some experiments, LN229 cells treated with PX-866 (0-25 μM) were analyzed for DNA content by PI staining and flow cytometry.” left out

Assay [3] concerns LN229 cells. The assay can be described thus: Global metabolomics screening. The note with it: 10 μM for 48 h. The format is cell-based, Human. On the procedure: Metabolomics screen and Reverse Phase Protein Array (RPPA). Changes in expression of 301 individual metabolites in LN229 cells treated with PX-866 (10 μM for 48 h) were determined in a global metabolomics screening as described previously. For RPPA, PC3 or LN229 cells were treated with vehicle, PX-866 (10 μM) or the combination of PX-866 plus Gamitrinib (5 μM) for 24 h. Data in triplicate samples were normalized for protein loading, converted to linear values and then log2 transformed.
Statistical analysis. Data were analyzed using the two-sided unpaired/tests using a GraphPad software package (Prism 4.0) for Windows. Data are expressed as mean±SEM of replicates of a representative experiment out of at least two independent determinations. A p value of ≤0.05 was considered as statistically significant. For RPPA screens, the False Discovery Rate (FDR) values were estimated using Benjamini-Hochberg correction for multiple testing and changes with FDR<20% of at least 1.2 fold were called statistically significant. […] However, biochemicals that were detected in all samples from one or more groups, but not in samples from other groups, were assumed to be near the lower limit of detection in the groups in which they were not detected. In this case, the lowest detected level of these biochemicals was imputed for samples in which that biochemical was not detected. […]

Assay [4] deals with Akt2 (Ser474) in cytosol and mitochondria. The assay can be described thus: Phosphorylated Akt in cytosol and mitochondrial extracts by Western blotting. Format: cell-based, Human. The conditions noted are these: cytosol and mitochondrial extracts, 48 h. Here is the method: Subcellular and submitochondrial fractionation. Mitochondrial fractions were isolated using an ApoAlertTM cell fractionation kit (CLONTECH), as described. Submitochondrial fractions comprising outer membrane (OM), inner membrane (IM), inter-membrane space (IMS) and matrix were prepared as described.
(In general: A western blot detects proteins with antibodies after separation by electrophoresis.)

The test system of assay [5] is LN229 cells. The assay can be described thus: High-throughput screening: cell viability (resazurin), compounds with DMSO or Gamitrinib. The format is cell-based, Human. The note with it: Gamitrinib 1 μM in combination. Here is the method:
High-throughput screening and synergy experiments. Compounds for the molecular targeted cancer therapeutics were either purchased from SelleckChem or acquired under Material Transfer Agreement (MTA) with the Wistar Institute MTA. Compounds were suspended in DMSO. The purity and identity of the compounds was confirmed by LC/MS for a fraction of the compounds. Source plates with a 10 point dilution series (5-fold dilutions, ranging from 10-0.0001 μmol/L) were prepared for screening. […] Cell viability was determined by the addition of resazurin to a final concentration of 50 μM and incubation for 8 h. Fluorescence intensity (excitation, 560 nm, emission, 590 nm) was determined on an Envision Xcite Multilabel Reader (Perkin-Elmer), and the fractional growth inhibition was determined by normalizing assay wells to the aggregated average responses of positive control (10 μM doxorubicin) and negative control (0.2% DMSO) treatments (n=12).
(Resazurin is reduced to fluorescent resorufin, in cell work by metabolically active cells.)

In assay [6] the test system is LN229 cells. The assay can be described thus: Bliss independence analysis of Gamitrinib and kinase inhibitors. The note with it: Gamitrinib with NVP-BEZ235, GDC-0941 or AZD6482, 7×7 matrix, 18 h. The format is cell-based, Human. Here is the method:
A synergistic anticancer activity of the combination of Gamitrinib and selected kinase inhibitors was further assessed by Bliss independence analysis. For these experiments, LN229 cells were treated with Gamitrinib (concentration range 2-0.008 μmol/L) and selected kinase inhibitors (concentration range 2-0.008 μmol/L) in a 7×7 matrix for 18 h at 37° C. Cell viability was measured by addition of resazurin, and the fractional growth inhibition under the various conditions tested was determined as described above. The Bliss expectation (E) for a combined response was calculated by the equation: E=(A+B)−(A×B) where A and B are the fractional growth inhibitions of drug A and B at a given concentration. […] Each synergy experiment was done two independent times, in duplicate.

Assay [7] deals with Ser473-phosphorylated Akt (pAkt). The assay can be described thus: Ser473-phosphorylated Akt in patient-derived organotypic cultures. The format is cell-based, Human. The note with it: Gamitrinib added to PI3K inhibitor-treated tumor organoids. On the procedure: Organotypic cultures. Short-term organotypic cultures from the different patient samples were established as described previously. Briefly, precise thick tissue slices (300 μm) were obtained from each case by vibratome serial cutting (VT1200, Leica Microsystems, Milan, Italy), and cultured in six-well plates on organotypic inserts (Millicell PICM ORG, Merck Millipore) for up to 48 h in 1 ml of Ham-F12 complete medium supplemented with vehicle (DMSO, 2.5 μl), pan-PI3K inhibitor LY294002 (50 or 100 μM) or PX-886 (2.5, 5 or 10 μM), or mitochondrial-targeted small molecule Heat Shock Protein-90 (Hsp90) inhibitor, 10 Gamitrinib (GA mitochondrial matrix inhibitor, 10 or 25 μM), or the combination of PX-886 plus Gamitrinib (each agent used at 10 μM). At the end of the experiment, one tissue slice per condition was formalin-fixed and paraffin-embedded (FFPE), and processed for morphological and immunohistochemical analysis. An additional tissue slice collected at the end of the experiment was embedded in optimal cutting temperature, and snap-frozen for molecular or immunofluorescence studies.

[8] abbreviates: PX-866 (10 μM), AZD6482 (10 μM) or GDC0941 (2 μM) for 48 h.

c-Src, sequence (P12931 whole entry, species assumed): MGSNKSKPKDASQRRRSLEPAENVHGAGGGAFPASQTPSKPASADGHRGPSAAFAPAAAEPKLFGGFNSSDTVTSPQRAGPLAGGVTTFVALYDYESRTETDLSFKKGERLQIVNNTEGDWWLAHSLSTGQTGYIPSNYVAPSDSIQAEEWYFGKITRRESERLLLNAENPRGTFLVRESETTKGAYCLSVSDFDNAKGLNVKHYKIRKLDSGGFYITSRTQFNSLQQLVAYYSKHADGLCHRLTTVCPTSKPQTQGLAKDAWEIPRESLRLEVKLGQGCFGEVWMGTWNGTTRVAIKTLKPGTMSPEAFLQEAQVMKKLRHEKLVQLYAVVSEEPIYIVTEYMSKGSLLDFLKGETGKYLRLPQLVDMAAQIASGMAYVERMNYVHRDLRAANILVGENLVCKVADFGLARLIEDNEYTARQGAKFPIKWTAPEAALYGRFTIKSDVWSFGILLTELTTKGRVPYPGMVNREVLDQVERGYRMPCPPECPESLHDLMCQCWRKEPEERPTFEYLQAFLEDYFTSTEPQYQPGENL

Regarding `O=c1cc(N2CCOCC2)oc2c(-c3ccccc3)cccc12` [LY294002, 2-(4-morpholinyl)-8-phenyl-4H-1-benzopyran-4-one], the “inhibition of c-Src” value on c-Src was “did not inhibit”. Moreover, the “inhibition of PKC” value in the assay on PKC is on record as “did not inhibit”. In the assay on PI4 kinase, the “inhibition of PI4 kinase” value is reported as “did not inhibit”. The PI3 kinase activity entry in the assay on PI3 kinase is “specifically abolished PI3 kinase activity”. The “inhibition of MAP kinase” value with MAP kinase is “did not inhibit”.

As to `C=CCN(/C=C1/C(=O)O[C@H](COC)[C@@]2(C)C1=C(O)C(=O)C1=C2[C@H](OC(C)=O)C[C@]2(C)C(=O)CC[C@@H]12)CC=C` [PX-866], in the assay on LN229 or PC3 cells [1] (10 μM for 48 h), the oxygen consumption entry is given as “suppression of oxygen consumption”. In addition, in the assay on LN229 or PC3 cells [1] (setting [8]), the ATP production entry is “reduced ATP production”, the glucose utilization entry was “less glucose utilization” and the lactate production entry is “less”. Besides, the Akt phosphorylation result in the assay with Akt phosphorylation is reported as “induced Akt phosphorylation”. Besides, the “phosphorylated Ser (pSer) reactivity of WT CypD” value in the assay on CypD (immunoprecipitated from reconstituted LN229 cells) was “increased this response; also recorded: increased reactivity with an antibody to pSer”. Further, the “levels of endogenous or overexpressed CypD” value with CypD (reconstituted cells, 10 μM for 48 h) is “did not affect”. In the assay on LN229 or PC3 cells [2] (10 μM), the “cell cycle (DNA content)” value is on record as “arrested in the G1 phase of the cell cycle” and the “proliferation (direct cell counting)” value is on record as “reduced proliferation”. In the assay with LN229 or PC3 cells [2] (LN229 cells, 48 h), the “viability (Trypan blue, MTT)” value was “without significant decrease in viability”. Further, in the assay on tumor cells, the “PML nuclear body number” value is “higher PML nuclear body number” and the “senescence-associated β-galactosidase staining (SA-β-Gal)” value was “increased β-galactosidase staining”. In the assay with GBM organotypic cultures (PX-866 (10 μM) for 48 h, GBM organotypic cultures), the “expression of kinome genes” value was “increased the expression of genes associated with growth factor signaling”. Further, in the assay on PC3 or LN229 cells, the “long-term colony forming ability” value was “unaffected”. The metabolome profile result in the assay on LN229 cells [3] is given as “extensive metabolic reprogramming”. In assay [4], the “phosphorylation of Akt2 on Ser474” value was “robust and concentration-dependent isoform-specific phosphorylation of Akt2 on Ser474”.

Gamitrinib: in the assay on LN229 cells [5], the “effect on anticancer activity of PI3K/Akt/MTOR pathway antagonists” value is on record as “potently enhanced the anticancer activity”. In the assay on GBM organotypic cultures (Gamitrinib added to PX-866-treated tumor organoids), the “transcriptional changes induced by PI3K inhibition” value was “largely reversed the transcriptional changes induced by PI3K inhibition”. Besides, in the assay with LN229 cells [6], the “tumor cell proliferation, Bliss independence analysis” value is “synergistically inhibited tumor cell proliferation”. Besides, in [7], the “reactivation of Akt induced by PI3K inhibition” value is given as “prevented the reactivation of Akt”.

Values taken from patent US20240342199A1, “COMBINATION THERAPIES TARGETING MITOCHONDRIA FOR CANCER THERAPY” (The Wistar Institute of Anatomy and Biology, priority 2014, published 2024).
